≈ marks a conversion by molar mass, not a printed value. Read-outs that look alike come from different tables or passages of the source. *1 amine or outer side, *2 acyl side, *3 side chain or, on linkers, in order; H or OH if unused. Where a SMILES comes first, the peptide text is derived from it. Bridges are numbered along the chain shown (N, C = ends). [ ]: non-standard residue; d: D form. The star is where a group is joined. ξ: configuration not given here. Phe(3,5-F2) = N[C@@H](Cc1cc(F)cc(F)c1)C(=O)O; NH(4-OCF3-phenyl) = FC(F)(F)Oc1ccc(N*)cc1; ξPro(4S-Me) = C[C@@H]1CNC(C(=O)O)C1; aThr = C[C@H](O)[C@H](N)C(=O)O; X1 = O=C(C1COCCN1[*:1])[*:2]; CO = O=C([*:1])[*:2]; ξP = O=C(O)C1CCCN1
Legend:
Sa-ClpP [1] = target: T1, Sa-ClpP (Staphylococcus aureus, UniProt Q2G036); experiment: ClpP activation, EnzCheck Protease Assay with Bodipy-FL casein (second described method); assay type: biochemical, S. aureus
T1 construct: made in house; host or cells: E. coli BL21 (DE3)
T1 sequence (Q2G036 whole entry): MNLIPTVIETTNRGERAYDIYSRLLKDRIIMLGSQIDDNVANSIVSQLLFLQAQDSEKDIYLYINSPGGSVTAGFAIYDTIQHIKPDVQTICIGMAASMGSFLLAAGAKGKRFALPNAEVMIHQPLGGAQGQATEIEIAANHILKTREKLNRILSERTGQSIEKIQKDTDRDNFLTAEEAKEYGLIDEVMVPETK
Method: Alternatively, the assay was carried out using EnzCheck Protease Assay (Molecular Probes, Catalog #E6638). The assay was performed in black 384 well, flat bottom, low volume plates (Greiner Bio-One, Monroe, N.C., catalog #784076). 10 μL of Tris.HCl buffer, pH 8.0 with 0.01% Triton X-100 was pipetted into each well using a Well-Mate (Thermo Scientific, Waltham, Mass.). 0.4 μL test compounds or controls (2% DMSO v/v) were added to each well using a Biomek FX liquid handling robot (Beckman Coulter, Indianapolis Ind.). After addition of test compounds and controls, 10 μL of master mix containing 2 μM Sa-ClpP and 2 μM substrate (Bodipy-FL labeled casein) in Tris*HCl buffer, pH 8.0 with 0.01% (v/v) Triton X-100, was pipetted into each well. All assays were performed in triplicate, under linear velocity conditions. Increase in fluorescent signal following activation of Sa-ClpP by test compounds and controls was measured over time period of 30 mins using filters with excitation at 485±15 nm and emission at 520±25 nm on a PHERAstar FS Multilabel reader (BMG, Cary, N.C.). […] Data analysis was done by measuring rate of casein degradation over time (slopes). Computed degradation rates (slopes) were normalized to positive (ADEP4) or negative (DMSO) controls. Using nonlinear regression curve fitting EC50 values and % activation were determined using the equation “log [agonist]vs. Response-variable slope (four parameters)-symmetrical” in the program Prism 6 (GraphPad Software, La Jolla, Calif. USA, www.graphpad.com).

Sa-ClpP [2] = target: T1, Sa-ClpP; experiment: ADEP displacement fluorescence polarization assay; assay type: binding, S. aureus
Method: A fluorescence polarization (FP) assay was used to determine the activity of the disclosed compounds in displacing an ADEP analogue from ClpP. Briefly, the assay was performed in black 384 well, flat bottom, low volume plates (Greiner Bio-One, Monroe, N.C., catalog #784076). 20 μL of a pre-equilibrated (1 hr, room temperature) master mix (1 μM Sa-ClpP, 2% DMSO (v/v) and 50 nM FP probe in Tris*HCl, pH 8.0)) was pipetted into each well using a Well-Mate (Thermo Scientific, Waltham, Mass.). Sa-ClpP was prepared as described above for the ClpP activation assay. The FP probe was ADEP 2591 (structure shown above). The ADEP 2591 comprises a TAMRA fluorophore linked to a core based on modified ADEP 2378 via a short alkyl linker. Using pin transfer, approximately 0.4 μL (2% v/v DMSO) of each compound or control was added per well. After addition of compounds and controls, plates were allowed to incubate for an additional 120 minutes at room temperature. All assays were performed in triplicate. Polarization was monitored using an EnVision Multilabel reader (Perkin-Elmer, Waltham, Mass.) by exciting the FP probe at 530±25 nm, and monitoring fluorescence intensity of both parallel and perpendicular polarized light at 579±25 nm. Readout was in millipolarization units (mP).
Signal gain and G factors were determined in wells containing 20 μM ADEP 2378, which had been previously verified (data not shown) as containing completely unbound ADEP 2591. Data collected was normalized to values obtained from positive (20 μM ADEP 2378) or negative (DMSO) controls. Curves were fit with non-linear regression using the equation “log [inhibitor]vs. Response-variable slope (four parameters)-symmetrical” in the program Prism 6 (GraphPad Software, La Jolla, Calif. USA, www.graphpad.com). The structures for ADEP 2378 and ADEP 2591 are shown above. ADEP 2378 is (E)-N-((S)-1-(((2R,6S,8aS,14aS,20S,23aS)-2,6-dimethyl-5,8,14,19,23-pentaoxooctadecahydro-1H,5H,14H,19H-pyrido[2,1-i]dipyrrolo[2,1-c:2′,1′-1][1]oxa[4,7,10,13]tetraazacyclohexadecin-20-yl)amino)-1-oxo-3-phenylpropan-2-yl)pent-2-enamide. ADEP 2591 is 5-(3-(3-((6S,9S,11aS,17S,20aS)-6,10-dimethyl-5,8,11,16,20-pentaoxo-17-((S)-2-((E)-pent-2-enamido)-3-phenylpropanamido)hexadecahydro-1H,5H,16H-dipyrrolo[2,1-c:2′,1′-1][1]oxa[4,7,10,13]tetraazacyclohexadecin-9-yl)propyl)thioureido)-2-(6-(dimethylamino)-3-(dimethyliminio)-3H-xanthen-9-yl)benzoate.

[3] = Cytotoxicity assay, CellTiter-Glo cell viability; assay type: cell-based; settings: African green monkey
Method: Cytotoxicity was determined by determining the effect of compounds on cell viability. Vero (kidney epithelial cells; ATCC CCL-81) monolayers were trypsinized and 5000 cells/well were seeded (10-15% confluency) into white-wall, flat bottom 96 well microwell plates (Corning) using enriched Dulbecco's Modified Eagle's Medium (Hyclone: DMEM/High Glucose) containing 10% Fetal Bovine Serum (ATCC-30-2020). Plates were incubated overnight at 37° C. in the presence of 5% CO2. Drug-free media was then replaced with media containing serial dilutions of test compound or DMSO carrier. After an additional 72 hours of incubation, viability was indirectly measured using the CellTiter-Glo® Luminescent Cell Viability (Promega) assay. Assay plates were read at peak emission wavelength of 560 nm using a EnVision® Multilabel Plate Reader (Perkin Elmer) or PHERAstar FS Multilabel reader (BMG, Cary, N.C.). […] USA, www.graphpad.com]. For each experiment, compounds were tested in duplicate. IC50 values presented are the range of two biologically independent experiments.

S. pneumoniae R6 = experiment: Minimal inhibitory concentration, microbroth dilution; assay type: cell-based
Method: Minimal inhibitory concentrations (“MICs”) were determined using the microbroth dilution method according to Clinical Laboratory Standards Institute (CLSI; National, C.F. C. L. S., Methods for Dilution Antimicrobial Susceptibility Tests for Bacteria Grow aerobically-Seventh Edition: Approved Standard M7-A7, CLSI, Wayne, Pa., USA, 2008) and were read by visual inspection. Two fold serial dilutions of test compound in 100 μL of the appropriate broth media were first prepared in 96-well round bottom microtiter plates (Nalgene Nunc International, Rochester, N.Y., USA). […] The plates were then incubated aerobically at 37° C. All strains were incubated overnight. After incubations, in all cases the MIC was recorded as the lowest concentration of drug that prevented bacterial growth. The bacterial strains for which MIC was determined as described in Table 4.

S. aureus USA 300 ΔClpP = experiment: as above; assay type: cell-based, Staphylococcus aureus; settings: ClpP inactivated strain
Method: Minimal inhibitory concentrations (“MICs”) were determined using the microbroth dilution method according to Clinical Laboratory Standards Institute (CLSI; National, C.F. C. L. S., Methods for Dilution Antimicrobial Susceptibility Tests for Bacteria Grow aerobically-Seventh Edition: Approved Standard M7-A7, CLSI, Wayne, Pa., USA, 2008) and were read by visual inspection. Two fold serial dilutions of test compound in 100 μL of the appropriate broth media were first prepared in 96-well round bottom microtiter plates (Nalgene Nunc International, Rochester, N.Y., USA). An equivalent volume (100 μL) of bacterial broth inocula containing approximately 10^5 bacterial cfu/mL was added to each well to give final concentrations of test compound starting at 200 μM. The plates were then incubated aerobically at 37° C. All strains were incubated overnight. After incubations, in all cases the MIC was recorded as the lowest concentration of drug that prevented bacterial growth. The bacterial strains for which MIC was determined as described in Table 4.

[4] = Streptococcus pneumoniae, R6; read-out: Minimal Inhibitory Concentration S. pneumoniae R6

Row | Structure (SMILES) | EC50 (Sa-ClpP [1]; read-out: ClpP Activation EC50 (converted)) | IC50 (Sa-ClpP [2]; 1 μM Sa-ClpP, 50 nM FP probe ADEP 2591, read-out: ADEP Displacement IC50) | IC50 at 72 h [3] | MIC (S. pneumoniae R6; [4]) | Minimal Inhibitory Concentration S. aureus USA 300 ΔClpP (S. aureus USA 300 ΔClpP) | EC50 (Sa-ClpP [1]) | IC50 (Sa-ClpP [2]) | MIC (S. pneumoniae R6; Streptococcus pneumoniae, R6, read-out: Minimal Inhibitory Concentration S. pneumoniae R6)
1 | C[C@@H]1NC(=O)[C@H](C)N(C)C(=O)C2CCCN2C(=O)[C@@H](NC(=O)[C@H](Cc2cc(F)cc(F)c2)NC(=O)Nc2ccc(OC(F)(F)F)cc2)[C@H](C)OC(=O)C2CCCN2C1=O (stereo partly drawn) [Compound 27, (2S)-3-(3,5-Difluorophenyl)-N-((6S,9S,11aS,17S,18S)-6,9,10,18-Tetramethyl-5,8,11,16,20-Pentaoxohexadecahydro-1H,5H,16H-Dipyrrolo[2,1-C:2′,1′-L][1]Oxa[4,7,10,13]Tetraazacyclohexadecin-17-Yl)-2-(3-(4-(Trifluoromethoxy)Phenyl)Ureido)Propanamide] | 0.31 ± 0.01 µM | 7.7 ± 0.2 µM | 10.5 ± 1.4 µM | 0.058 µM (≈ 0.0486 µg/mL) | 100 µM |  |  | 
2 | C[C@H]1CC2C(=O)O[C@@H](C)[C@H](NC(=O)[C@H](Cc3cc(F)cc(F)c3)NC(=O)Nc3ccc(OC(F)(F)F)cc3)C(=O)N3CCCC3C(=O)N(C)[C@@H](C)C(=O)N[C@@H](C)C(=O)N2C1 (stereo partly drawn) [Compound 28, (2S)-3-(3,5-Difluorophenyl)-N-((2S,6S,9S,11aS,17S,18S)-2,6,9,10,18-Pentamethyl-5,8,11,16,20-Pentaoxohexadecahydro-1H,5H,16H-Dipyrrolo[2,1-C:2′,1′-L][1]Oxa 1[4,7,10,13]Tetraazacyclohexadecin-17-Yl)-2-(3-(4-(Trifluoromethoxy)Phenyl)Ureido)Propanamide] |  |  | 16.1 ± 2.4 µM | 0.029 µM (≈ 0.0247 µg/mL) |  | 0.19 ± 0.01 µM | 5.6 ± 0.2 µM | 
3 | CCc1ccc(NC(=O)N[C@@H](Cc2cc(F)cc(F)c2)C(=O)N[C@@H]2C(=O)N3CCCC3C(=O)N(C)[C@@H](C)C(=O)N[C@@H](C)C(=O)N3CCCC3C(=O)O[C@H]2C)cc1 (stereo partly drawn) [Compound 29, (2S)-3-(3,5-Difluorophenyl)-2-(3-(4-Ethylphenyl)Ureido)-N-((6S,9S,11aS,17S,18S)-6,9,10,18-Tetramethyl-5,8,11,16,20-Pentaoxohexadecahydro-1H,5H,16H-Dipyrrolo[2,1-C:2′,1′-L][1]Oxa[4,7,10,13]Tetraazacyclohexadecin-17-Yl)Propanamide] |  |  | 26.8 ± 1.3 µM | 0.031 µM (≈ 0.0242 µg/mL) | 100 µM | 0.25 ± 0.02 µM | 5.9 ± 0.2 µM | 
4 | CCc1ccc(NC(=O)N[C@@H](Cc2cc(F)cc(F)c2)C(=O)N[C@@H]2C(=O)N3CCCC3C(=O)N(C)[C@@H](C)C(=O)N[C@@H](C)C(=O)N3C[C@@H](C)CC3C(=O)O[C@H]2C)cc1 (stereo partly drawn) [Compound 30, (S)-3-(3,5-Difluorophenyl)-2-(3-(4-Ethylphenyl)Ureido)-N-((2S,6S,9S,11aS,17S,18S,20aS)-2,6,9,10,18-Pentamethyl-5,8,11,16,20-Pentaoxohexadecahydro-1H,5H,16H-Dipyrrolo[2,1-C:2′,1′-L][1]Oxa[4,7,10,13]Tetraazacyclohexadecin-17-Yl)Propanamide] |  |  | 28.8 ± 3.7 µM | 0.008 µM (≈ 0.00637 µg/mL) | 50 µM | 0.43 ± 0.02 µM | 4 ± 0.1 µM | 
5 | C[C@H]1CC2C(=O)O[C@@H](C)[C@H](NC(=O)[C@H](Cc3cc(F)cc(F)c3)NC(=O)Nc3ccc(OC(F)(F)F)cc3)C(=O)N3C[C@H](O)CC3C(=O)N(C)[C@@H](C)C(=O)N[C@@H](C)C(=O)N2C1 (stereo partly drawn) [Compound 32, (S)-3-(3,5-Difluorophenyl)-N-((2S,6S,9S,11aS,13R,17S,18S,20aS)-13-Hydroxy-2,6,9,10,18-Pentamethyl-5,8,11,16,20-Pentaoxohexadecahydro-1H,5H,16H-Dipyrrolo[2,1-C:2′,1′-L][1]Oxa[4,7,10,13]Tetraazacyclohexadecin-17-Yl)-2-(3-(4-(Trifluoromethoxy)Phenyl)Ureido)Propanamide] |  |  | 28.3 ± 0.6 µM | 0.049 µM (≈ 0.0425 µg/mL) | 100 µM | 0.4 ± 0.01 µM | 7 ± 0.4 µM | 
6 | C[C@H]1CC2C(=O)O[C@@H](C)[C@H](NC(=O)[C@H](Cc3cc(F)cc(F)c3)NC(=O)Nc3ccc(OC(F)(F)F)cc3)C(=O)N3CCCC3C(=O)N3CCOCC3C(=O)N[C@@H](C)C(=O)N2C1 (stereo partly drawn) [Compound 34, (S)-3-(3,5-Difluorophenyl)-2-(3-(4-(Trifluoromethoxy)Phenyl)Ureido)-N-((6aS,12S,13S,15aS,17S,21S,23aS)-13,17,21-Trimethyl-6,11,15,20,23-Pentaoxooctadecahydro-6H,11H,15H-[1,4]Oxazino[3,4-I]Dipyrrolo[2,1-C:2′,1′-L][1]Oxa[4,7,10,13]Tetraazacyclohexadecin-12-Yl)Propanamide] ({NH(4-OCF3-phenyl)-CO}-[Phe(3,5-F2)][aThr][ξP][X1]A[ξPro(4S-Me)]; ester 2-C) |  |  | 26 ± 2.6 µM | 0.049 µM (≈ 0.0431 µg/mL) | 50 µM | 0.33 ± 0.01 µM | 6.1 ± 0.4 µM | 
7 | CN[C@@H]1[C@H](O)[C@H](NC)[C@H]2O[C@@]3(O)C(=O)C[C@@H](C)O[C@H]3O[C@@H]2[C@H]1O [Spectinomycin, spectinomycin, reference compound] |  |  |  |  | 25 µM |  |  | 6.3 µM (≈ 2.09 µg/mL)
